Patent publication US8008425B2, “Thiophene compound having sulfonyl group and process for producing the same” (Nissan Chemical Industries, Ltd., priority 2005, dated 2011)

Assay: Solubility test
Type: physicochemical
Conditions: 25° C., ultrasonic waves, 5 mg, solvent added 50 μL by 50 μL
Description: The solubility of each of the sulfonylthiophene compounds synthesized in Examples 21 and 22 was determined under ultrasonic waves at 25° C. by adding, to aliquots (5 mg) of the sulfonylthiophene compound, tetrahydrofuran (THF), toluene, N,N-dimethylformamide (DMF), chloroform, ethyl acetate and ethanol 50 μL by 50 μL, respectively, until they were dissolved. The level of solubility was ranked in accordance with the following standards. • ⊚: Dissolved with 50 μL (concentration: 10%) • ◯: Dissolved with 100 μL (concentration: 5%) • Δ: Dissolved with 200 μL (concentration: 2.5%) • X: Not dissolved even by the addition of 500 μL (concentration: 1% or lower)

**Q.** For CCCCCCCCS(=O)(=O)c1c(-c2ccc(N(c3ccccc3)c3ccccc3)cc2)sc(-c2ccc(N(c3ccccc3)c3ccccc3)cc2)c1S(=O)(=O)CCCCCCCC [Example 21, 4,4′-{3,4-bis(octane-1-sulfonyl)-thiophene-2,5-diyl}bis(N,N-diphenylaniline)], which level of solubility (Chloroform) is on record?
**A.** ⊚ (Dissolved with 50 μL (concentration: 10%))

**Q.** What about the level of solubility (DMF) of the same molecule?
**A.** Δ (Dissolved with 200 μL (concentration: 2.5%))

**Q.** And the level of solubility (Ethanol)?
**A.** X (Not dissolved even by the addition of 500 μL (concentration: 1% or lower))

**Q.** What about the level of solubility (Ethyl acetate) of the same molecule?
**A.** ◯ (Dissolved with 100 μL (concentration: 5%))

**Q.** What about the level of solubility (THF) of the same molecule?
**A.** ◯ (Dissolved with 100 μL (concentration: 5%))

**Q.** And the level of solubility (Toluene)?
**A.** ◯ (Dissolved with 100 μL (concentration: 5%))

**Q.** Which results are given for CCCCCCCCS(=O)(=O)c1cc(-c2ccc(N(c3ccccc3)c3ccccc3)cc2)sc1-c1ccc(N(c2ccccc2)c2ccccc2)cc1 [Example 22, 4,4′-{3-(octane-1-sulfonyl)-thiophene-2,5-diyl}bis(N,N-diphenylaniline)]?
**A.** level of solubility (Chloroform): ⊚ (Dissolved with 50 μL (concentration: 10%)); level of solubility (DMF): ⊚ (Dissolved with 50 μL (concentration: 10%)); level of solubility (Ethanol): X (Not dissolved even by the addition of 500 μL (concentration: 1% or lower)); level of solubility (Ethyl acetate): ⊚ (Dissolved with 50 μL (concentration: 10%)); level of solubility (THF): ⊚ (Dissolved with 50 μL (concentration: 10%)); level of solubility (Toluene): ⊚ (Dissolved with 50 μL (concentration: 10%))
